Patent US6521641B1, “Male anti-fertility agents” (Allergan, Inc., priority 1998, dated 2003)
Read-outs that look alike come from different tables or passages of the source.

Key:
Stability to light = format: physicochemical
[1] = Excretion of the drug (separate experiment); format: in vivo; conditions: within 2 weeks following treatment
Sprague-Dawley rats [2] = system: Sprague-Dawley rats
Method: The drug was administered using a graduated syringe and a 20×3 inch animal feeding needle. Drug was given to each animal in a single dose per day.
Animals were weighed on the first day of the study and once per week thereafter, and the body weights recorded. The body weights were used for the dosage calculations. For all the Main Study and Recovery animals, food (Purina Certified Rodent Chow, meal form) was placed into tared glass jars and left in the animal cages. Jars were removed and weighed once weekly. Food was added to the jars when necessary. Food consumption was not recorded for the animals used in the toxicokinetic satellite studies.
Urine was collected from animals in the Main Study and Recovery groups during week 4 of the treatment period, and from Recovery group animals during week 4 of the recovery period. Urine was analyzed for: blood (hemoglobin and erythrocytes), bilirubin, color, glucose, ketones, leukocytes, microscopic evaluations of any urine sediment, […], pH, protein, specific gravity, transparency, and urobilinogen.
Animals were euthanized by inhalation of carbon dioxide. A complete necropsy was performed on all Main Study and Recovery group animals that died, or were euthanized due to moribund conditions, or were euthanized on scheduled sacrifice.

Sprague-Dawley rats [3] = assay: Topical treatment of Sprague-Dawley rats with AGN 194310 cream for 28 days (Example 2); format: in vivo, rat
Method: Twenty-nine male and twenty-nine female Sprague-Dawley rats, approximately 7 weeks old were used for the study. Five rats/sex/group were designated as Main Study animals: (vehicle control, 0.025 mg/kg/day AGN 194310, and 0.25 mg/kg/day AGN 194310), and 7/sex/group designated as toxicokinetic satellite animals (0.025 mg/kg/day AGN 194310 and 0.25 mg/kglday AGN 194310). No “vehicle alone” control group was made for the toxicokinetic satellite animals. In this study there was no Recovery group.
The animals' backs were maintained shaven during the course of the study for application of the topical cream. The animals were treated daily with a topical formulation containing either AGN 194310 vehicle cream alone, 0.01% (w/w) AGN 194310 in the same vehicle cream, or 0.1% (w/w) AGN 194310 in the same vehicle cream. The vehicle cream consisted of a mixture of the following ingredients:
Daily dosages were calculated using the most recently obtained body weight, as shown below. The test or control creams were applied for 28 consecutive days to the shaved back of each animal in an area approximately equal to 35.5 cm^2. Application was made using a repeat pipettor, and the drug gently massaged into the skin. An Elizabethan collar was affixed around each animal's neck for a period of about 6 hours following treatment to prevent removal or systemic ingestion of the drug.
Blood was drawn at day 29 via cardiac puncture, as described in Example 1. The animals were first permitted to fast for approximately 16 hours prior to blood collection. Satellite animals were sacrificed on day 28.

male cynomologus monkeys = assay: Preliminary test of AGN 194310 in male cynomologus monkeys; format: in vivo, cynomologus monkey; conditions: 5 male cynomologus monkeys, daily dosage of 1.25 mg/kg
Source text: Those of skill in the art will also recognize that both rats and monkeys are commonly used and accepted animal models for drug efficacy in humans.

male Sprague Dawley rats = assay: Reversibility of spermatogenic arrest, oral AGN 194310 for 4 weeks and recovery (Example 3); format: in vivo, rat
Method: Groups of male Sprague Dawley rats were treated orally for 4 weeks with either 0, 0.075, or 0.150 mg/kg/day of AGN 194310. Three to six animals from each group were sacrificed after 2 weeks of treatment, 6 animals from each group were sacrificed following 4 weeks of treatment and 6 animals from each group were sacrificed after 18-23 weeks of subsequent recovery after cessation of treatment. Histological and pathological examinations were done of the sacrificed animals, as in Example 1. Additionally, the animals in the 23 week recovery group were mated to normal, untreated female Sprague Dawley rats before being sacrificed to assess the reproductive function.

[4] = Toxicokinetics of oral AGN 194310 in rats (drug in blood by GC/MS); format: in vivo, rat; conditions: for Tmax / Cmax / AUC(0-t): both sexes, Sprague-Dawley, rat, whole blood; for Tmax: Day 22; for Cmax / AUC(0-t): po; for Cmax: N = 8; for AUC(0-t): N = 8, read-out: AUC24 hr
Method: The concentration of drug in the blood was determined from blood drawn from the retro-orbital sinus of the right eye on Day 7 of the study as follows: for rats in groups 7 through 9 (4/sex/group/timepoint, with each animal being bled no more than 3 times), blood (approximately 1 ml) was drawn prior to being given the drug, and at approximately 2, 6, 8, 12 and 24 hours post-dosing. The vehicle-treated rats (group 6) were bled at approximately 8 and 24 hours post-dosing. The rats in groups 6 through 9 were similarly bled on Day 22 of the study, then euthanized. All blood was drawn into tubes containing EDTA to prevent coagulation, and placed on ice prior to analysis. The blood was assayed for the presence of AGN 194310 by gas chromatography/mass spectrometry.
AGN 194310 was systemically absorbed following oral administration to rats and approached the peak concentration in plasma (Cmax) at 2 or 6 hours post dosing (Tmax).

[5] = oral 0.075 mg/kg, after 18 weeks of recovery
[6] = oral 0.075 mg/kg, after 23 weeks of recovery

Q: What does the source list for CCc1ccc(C2=CC(C)(C)Sc3ccc(C#Cc4ccc(C(=O)O)cc4)cc32)cc1 [AGN 194310, 4-[[4-(4-ethylphenyl)-2,2-dimethyl-(2H)-thiochromen-6-yl]-ethynyl]-benzoic acid]?
A: stability to normal light (Stability to light): relatively stable to normal light; drug excreted [1]: 88%; urinalysis parameters (Sprague-Dawley rats [2]; rat, in vivo, po): no apparent treatment-related effects; treatment-related deaths (Sprague-Dawley rats [2]; rats, oral, 0.005-0.15 mg/kg/day, course of the study): No treatment-related deaths; postmortem pathological examination (Sprague-Dawley rats [2]; rats, oral, end of the treatment period): no noticeable differences; germ cells in the head of the epididymis (Sprague-Dawley rats [3]; majority of males displaying spermatogenic arrest, topical): notable reduction of germ cells; hematological differences versus control rats (Sprague-Dawley rats [3]; male rats in all groups, topical): no statistically significant hematological differences; treatment-related skin irritation (Sprague-Dawley rats [3]; rats, topical skin application, 0.025 and 0.25 mg/kg/day, 28 days): did not result in any evidence of treatment-related skin irritation; clinical observations, body weight, food consumption, gross pathology (Sprague-Dawley rats [3]; rats, topical, 0.025 and 0.25 mg/kg/day, 28 days): No treatment-related clinical observations, differences in body weight, differences in food consumption, or in gross pathology were observed; male rats with atrophy of the seminiferous tubules with concomitant spermatogenic arrest (Sprague-Dawley rats [3]; topical 0.025 mg/kg/day, 28 days): 0 out of 5; male rats with atrophy of the seminiferous tubules with concomitant spermatogenic arrest (Sprague-Dawley rats [3]; topical 0.25 mg/kg/day, 28 days): 5 out of 5; inhibition or arrest of spermatogenesis (male cynomologus monkeys): did not result in inhibition or arrest of spermatogenesis; seminal vesicles (male Sprague Dawley rats; all the treated animals, oral 0.075 mg/kg): normal; round spermatids in the epididymal caput and cauda (male Sprague Dawley rats; oral 0.075 mg/kg): No increase; rats with evidence of spermatogenic arrest (male Sprague Dawley rats; oral 0.075 mg/kg, after 2 and 4 weeks of treatment): All rats; weight of the testes and epididymides (male Sprague Dawley rats; oral 0.075 mg/kg, after 4 weeks of treatment): significantly reduced; mature sperm in the epididymides (male Sprague Dawley rats; [5]): no mature sperm were seen; spermatogenesis (histological analysis) (male Sprague Dawley rats; [5]): active spermatogenesis had resumed; weight of the testes and epididymides (male Sprague Dawley rats; [5]): this weight decrease persisted to some degree; fertility (mating to untreated females) (male Sprague Dawley rats; [6]): All tested animals were fertile; rats completely recovered (normal testes weights, complete spermatogenesis cycle, mature sperm in epididymides) (male Sprague Dawley rats; [6]): 2 of the 3; rats with spermatogenic arrest (male Sprague Dawley rats; oral 0.150 mg/kg, after 2 and 4 weeks of treatment): all rats; rats completely recovered (active and complete spermatogenesis, normal testes weight) (male Sprague Dawley rats; oral 0.150 mg/kg, after 23 weeks of recovery): 4 out of 6; spermatogenesis in the remaining animals (male Sprague Dawley rats; oral 0.150 mg/kg, after 23 weeks of recovery, remaining two animals): incomplete spermatogenesis no mature sperm seen in the epididymides histologically; reproduction of the recovered rats (male Sprague Dawley rats; oral 0.150 mg/kg, after 23 weeks of recovery, the 4 recovered rats): able to reproduce normally; reversibility of the effects of the drug (male Sprague Dawley rats; when administration is halted): fully reversible; systemic exposure to AGN 194310 ([4]; across the concentrations of AGN 194310): dose dependent increase; Tmax ([4]; 0.005 mg/kg/day): 2 h; Tmax ([4]; 0.015 mg/kg/day): 2 h; Tmax ([4]; 0.15 mg/kg/day): 6 h; Cmax ([4]; 0.005 mg/kg/day, 0.001% AGN 194310 (0.005 mg/kg/day), Day 7, mean ± SD): 1.83 ± 0.55 ng/mL; Cmax ([4]; 0.005 mg/kg/day, 0.001% AGN 194310 (0.005 mg/kg/day), Day 22, mean ± SD): 1.97 ± 0.75 ng/mL; AUC(0-t) ([4]; 0.005 mg/kg/day, Day 7, mean ± SEM): 19.6 ± 1.1 ng·h/mL; AUC(0-t) ([4]; 0.005 mg/kg/day, Day 22, mean ± SEM): 20.8 ± 1.1 ng·h/mL; Cmax ([4]; 0.015 mg/kg/day, 0.003% AGN 194310 (0.015 mg/kg/day), Day 7, mean ± SD): 4.73 ± 1.2 ng/mL; Cmax ([4]; 0.015 mg/kg/day, 0.003% AGN 194310 (0.015 mg/kg/day), Day 22, mean ± SD): 5.32 ± 1.56 ng/mL; AUC(0-t) ([4]; 0.015 mg/kg/day, Day 7, mean ± SEM): 57.6 ± 2.6 ng·h/mL; AUC(0-t) ([4]; 0.015 mg/kg/day, Day 22, mean ± SEM): 63.6 ± 2.7 ng·h/mL; Cmax ([4]; 0.15 mg/kg/day, 0.01% AGN 194310 (0.15 mg/kg/day), Day 7, mean ± SD): 43.1 ± 7.2 ng/mL; Cmax ([4]; 0.15 mg/kg/day, 0.01% AGN 194310 (0.15 mg/kg/day), Day 22, mean ± SD): 42.4 ± 9.3 ng/mL; AUC(0-t) ([4]; 0.15 mg/kg/day, Day 7, mean ± SEM): 668 ± 24 ng·h/mL; AUC(0-t) ([4]; 0.15 mg/kg/day, Day 22, mean ± SEM): 675 ± 25 ng·h/mL
